US10421725B2, “Alkoxyamines for the treatment of cancers” (Centre National De La Recherche Scientifique, priority 2013, dated 2019)

Tests used:
[1] = test system: U87 cells; assay: Viability test (LIVE/DEAD kit, flow cytometry); type: cell-based, Human
Description: (§1) Cell culture: Human glioblastoma-astrocytoma cell line U87 MG from the American Type Culture Collection (reference ATCC-HTB-14) were cultured in Dulbecco's modified eagles medium (DMEM, Gibco Corp) supplemented with 10% fetal calf serum (FCS, Gibco Corp), in a humidified atmosphere with 5% CO2 at 37° C.
Viability Test: The viability study of U87 cells treated or not with the alkoxyamine was measured by the LIVE/DEAD® Viability/Cytotoxicity Kit (Molecular Probes, Invitrogen, Life Technologies). Briefly, the cells were allowed to grow during 24 h on 24 multiwell plates (Becton-Dickinson, 2 cm^2/well). They were then treated with the alkoxyamine at concentrations ranging from 0.1 to 3 mM and tested for viability at distinct observation times (1, 3, 6, 24 or 72 h). To do this the adherent cells were dissociated from the plate by trypsinization and pelleted by centrifugation. Then, the cells were resuspended at 10^6 cells/mL on calcein-am and ethidium homodimer-1 solution during 20 minutes at room temperature and analyzed on a Guava easyCyte flow cytometer/counter (Millipore). U87 cells viability was also measured after treatment with previously homolysed alkoxyamine. For these experiments, the alkoxyamine was incubated in the culture medium during 72 h at 6 mM without the cells. U87 cells were then treated with different concentrations of this homolysed alkoxyamine for 1 h and a viability test was performed as previously described. The viability test in the presence of the free radical scavenger was carried out with an alkoxyamine concentration of 3 mM and an incubation time of 1 h. U87 cells viability was measured versus increasing concentrations the radical scavenger, trihydroxyethylrutin (Santa Cruz Biotechnology, inc.) namely, 20, 50 or 100 mM.

[2] = test system: U87 cells; assay: Oxidative stress (carboxy-H2DCFDA probe, flow cytometry); type: cell-based, Human; settings: 3 mM, 1 h
Description: as §1
Oxidative stress: The cells were grown in a 24 multiwell plate as previously described. Then, cells were dissociated using 0.05% trypsin (Invitrogen, Carlsbad, Calif., USA) and suspended at a density of 1×10^6 cells/mL in carboxy-H2DCFDA (Molecular Probes, Invitrogen, Life Technologies) at 50 μM. After 30 minutes incubation at 37° C., cells were washed with phosphate buffered saline (PBS). Cells were centrifuged and resuspended with cell culture media containing or not 3 mM alkoxyamine with or without trihydroxyethylrutin at 20 or 50 mM. After incubation time the cells were washed and analyzed on a Guava easyCyte flow cytometer/counter.

[3] = test system: U87 cells; assay: Mitochondrial alterations measurements (TMRE, NAO); type: cell-based, Human
Description: as §1
Mitochondrial alterations measurements. The red fluorescent dye tetramethylrhodamine ethyl ester (TMRE, Molecular Probes, Invitrogen, Life Technologies) was used to follow variations in mitochondrial membrane potential. This cationic probe accumulates in polarized mitochondria through the electrochemical gradient. Nonyl Acridine Orange (NAO, Molecular Probes, Invitrogen, Life Technologies) was then used as a complementary assay to assess the changes in mitochondrial morphology. Cells were plated on 24 multi-well plates (Becton-Dickinson, 2 cm^2/well) during 24 h and treated with a range of ALK-1 concentrations (0.1; 0.25; 0.375; 0.5; 0.75; 1.0 and 1.5 mM). After 3, 24 or 72 h, cells were resuspended in TMRE (250 nM) or NAO (500 nM) and incubated 30 minutes at 37° C., 5% CO2. Incubation with 0.5 mM of Carbonyl cyanide 3-chlorophenylhydrazone (CCCP, Sigma-Aldrich) was performed as positive control of the mitochondrial depolarization staining. Then, cells were washed and analyzed by flow cytometry. All the experiments were performed three times.

[4] = test system: U87 cells; assay: Cell death analysis by annexin V/propidium iodide staining; type: cell-based, Human
Description: as §1
Cell death analysis by annexin V/propidium iodide staining. Cell death was detected by annexin V-FITC (Molecular Probes, Invitrogen, Life Technologies) binding to exposed […] (PS) residues at the surface of cells. Cells were treated with ALK-1 at concentrations ranging from 0.1 to 1.5 mM at 37° C. and tested at distinct observation times (3, 24 or 72 h). After treatment, cells were re-suspended in staining buffer containing propidium iodide (PI, 2 μg/mL) and annexin V-FITC. Double-labeling was performed at room temperature for 15 min in darkness. Then, the percentage of viable (IP−/AV−), early apoptotic (IP−/AV+) and late apoptosis/necrotic cells (IP+/AV+) was quantified by flow cytometry. These experiments were performed twice.

[5] = test system: U87 cells; assay: Apoptosis detection through caspase-3/-7 assay; type: cell-based, Human
Description: as §1
Apoptosis detection through caspase-3/-7 assay. Quantitative assessment of apoptotic cells was also conducted by the detection of caspase activity using the Vybrant® FAM Caspase-3 and -7 Assay Kit (Molecular Probes, Invitrogen, Life Technologies). Briefly, cells were treated with the previously described ALK-1 concentrations during 3, 24 or 72 h. After the alkoxyamine treatment, the cells were dissociated from the support, washed and incubated 1 h at 37° C. in FLICA working solution. Then, the cells were washed and green fluorescence was measured by flow cytometry. These experiments were performed twice.

[6] = Monitoring of ALK-1 homolysis by Overhauser-enhanced MRI (OMRI); type: physicochemical
Source text: EPR Cavity and MRI devices. The OMRI experiment were done in a C-shaped 0.2 T MRI system (Magnetom Open Viva, Siemens, Erlangen, Germany) and a resonant TE011 transverse electric mode EPR cavity setup (Bruker, Wissembourg, France) as described previously. The EPR cavity, placed at the center of the magnet, was used to saturate the electron spin transition of the nitroxide SG1 produced upon ALK-1 homolysis. A homemade saddle-shaped MRI coil (28 mm in diameter and 29 mm in length) in the EPR cavity was used for imaging.
Electron spin saturation was carried out at 5.4573 GHz, corresponding to the first line at high field from the center of the EPR spectrum. The proton frequency was 8.24 MHz. Sample temperature was kept at 37° C.
OMRI experiments were performed in two NMR tubes (4 mm inner diameter): one containing 0.8 mM of SG1 nitroxide in phosphate buffer saline (not shown) and the other with 0.8 mM of ALK-1 in DMEM, 10% FCS. ALK-1 homolysis was followed for 48 hours.
Pulse sequences. […] All MR adjustments were done manually, using the same fixed receiver amplification gain for both measurements, without (Soff) and with (Son) HF irradiation, so that signals can be directly compared and Overhauser enhancements (Son/Soff) calculated.
Post-processing. […] Signal intensity was measured in a rectangular region of interest of 2 mm^2 positioned in the NMR tube area. […]

[7] = cited from earlier work

CCOP(=O)(OCC)C(N(OC(C)c1cc[n+](C)cc1)C(C)(C)C)C(C)(C)C (stereo not shown) [ALK-1, N-methyl 4-(1-((tert-butyl(1-(diethoxyphosphoryl)-2,2-dimethylpropyl)amino)oxy)ethyl)pyridin-1-ium 4-methylbenzenesulfonate]
cells saved by the free radical scavenger ([1]; 3 mM alkoxyamine, 1 h, with free radical scavenger (trihydroxyethylrutin)): 80%
cells killed ([1]; 3 mM, one hour): approximately 75%
cytotoxic effect ([1]; 0.1 to 3 mM): dose-dependent cytotoxic effect
toxicity for U87 cells of previously homolysed alkoxyamine ([1]; same concentration, previously homolysed (72 h in culture medium), 1 h treatment): do not carry any toxicity
oxidative stress [2]: strong oxidative stress
NAO staining ([3]; 24 h, ALK-1 concentrations greater than 0.5 mM): increased
concentration from which the mitochondrial potential drops (TMRE) ([3]; all times of observation (3, 24, 72 h)): ≥ 0.5 mM
necrotic or apoptotic cells (PI+/AV+) ([4]; 3 h, 1.5 mM): most cells were necrotic or apoptotic cells
necrotic or apoptotic cells (PI+/AV+) ([4]; 24 h, 1 mM): 94%
PI+/AV+ cells ([4]; 72 h, 0.5 mM): most cells were PI+/AV+
cells carrying activated caspases ([5]; 3 h, 1.5 mM): 92%
caspase positive cells ([5]; 24 h, 1 mM): 88%
caspase+ cells ([5]; 72 h, 0.25 mM): more than 40%
caspase positive cells ([5]; 72 h, 0.5 mM): 80%
Ea (homolysis activation energy) ([6]; afforded by the OMRI t1/2): 26.1 kcal/mol
half-life at 0.8 mM ([6]; cell culture medium (DMEM, 10% FCS), 0.8 mM, culture cell medium, 37° C., OMRI, read-out: experimental t1/2 of homolysis): ~2.08 h
Ea (homolysis activation energy), value reported [7]: 25.3 kcal/mol

N#CC(C#N)=NNc1cccc(Cl)c1 [CCCP, Carbonyl cyanide 3-chlorophenylhydrazone, reference compound]
mitochondrial potential (TMRE) ([3]; 0.5 mM CCCP positive control, all incubation times): expected drop of the mitochondrial potential
accessibility of the cardiolipins to NAO ([3]; 0.5 mM CCCP, independently of incubation time): either neutral or positive
